In US20240132458A1, “NLRP3 INFLAMMASOME SMALL-MOLECULE INHIBITOR FOR TREATMENT OF ALZHEIMER'S DISEASE” (AJOU UNIVERSITY INDUSTRY-ACADEMIC COOPERATION FOUNDATION, priority 2021, published 2024):
“Also recorded” adds a separate entry of the source.

Assays:
[1] = system: NLRP3 signaling pathway (IL-1β, caspase 1); test: Western blot of the NLRP3 signaling pathway; format: cell-based, human; details: 10 μM, PMA-differentiated THP-1, LPS/nigericin
Method: Cytoplasmic proteins were extracted using NE-PERTM Nuclear and Cytoplasmic Extraction Reagent (Thermo Fisher Scientific, Inc.), and the total-protein was measured using a Bicinchoninic (BCA) assay kit (Sigma-Aldrich Co.). The proteins were separated by SDS-PAGE and transferred to a membrane using a Mini-PROTEAN Tetra Cell and Mini Trans-Blot Electrophoretic Transfer Cell System (Bio-Rad Laboratories, Hercules, CA, USA). The membranes were blocked with skim milk (5%) for 1 hour, and immunoblotted with antibodies against NLRP3, IL-1β, mature IL-1β (Cell Signaling Technology Inc., Danvers, MA, USA), caspase 1 and β-actin (Santa Cruz Biotechnology Inc., Dallas, TX, USA) at 4° C. overnight. After washing with PBS supplemented with 0.1% of Tween 20, the membranes were treated with a peroxidase-conjugated anti-rabbit or anti-mouse IgG antibody (1:1,000) for 2 hours at room temperature. The SuperSignal West Pico ECL solution (Thermo Fisher Scientific, Inc.) was used to detect protein bands that were visualized on a ChemiDocm Touch Imaging System (Bio-Rad Laboratories).

[2] = system: AD model mice (Aβ1-42 injected); test: Y-maze test in AD model (spatial working memory); format: in vivo, C57BL/6 mice; details: NIC7 100 nmol/g intraperitoneally, 3 days/week; vs vehicle-treated and untreated mice
Method: (§1) 6-week-old male C57BL/6 mice (19 to 22 g) were used, and 5 mice per cage were bred in a feedlot. To create an AD model, experimental animals were administered isoflurane by inhalation, and then injected with Aβ1-42 (5 μL) using a Hamilton microsyringe with a 26-gauge needle. The AD model mice were trained for 20 minutes/mouse for 2 days before the experimental procedure, and then subjected to Y-maze tests and novel object recognition tests (for cognitive evaluation). Behavioral evaluation was performed 7 days after Aβ1-42 injection. The animals were subdivided into AD, NIC7-treated, vehicle (DMSO)-treated, donepezil-treated (positive control) and normal (no-disease) groups. Cognitive evaluation was performed on days 7, 14, 21 and 28 after injection.
The alteration in spatial cognitive behavior was assessed using a Y-maze apparatus with three horizontal identical arms (35 cm long×15 cm high×5 cm wide) symmetrically arranged at 120° to each other. The evaluation was performed in the Y-maze test 7 days after Aβ injection. After introduction into the Y-maze, each animal was allowed to move freely for 2 minutes and then measured for 5 minutes. The test subjects tended to enter an arm different from the arm they had previously visited. The number of arm entries and triads was recorded to calculate the percentage of alternation. […]

[3] = system: AD model mice (Aβ1-42 injected); test: Novel object recognition test in AD model; format: in vivo, C57BL/6 mice; details: NIC7 100 nmol/g intraperitoneally; vs vehicle-treated or untreated mice
Method: as §1
A novel object recognition test was performed in an open field box containing two identical objects. Animals were first familiarized with these identical objects for 2 minutes, and then one of the objects was replaced with a novel object, followed by reading for 5 minutes. The time spent with an identical object (tA) and the time spent with a novel object (tB) were calculated, and the recognition index ratio was calculated via the formula (tB/(tA+tB))×100.

Microsomal stability = format: in vitro ADME, human
Method: Stock solutions of NIC7 and NIC7w were prepared at a concentration of 10 mM in DMSO, and were diluted to a concentration of 100 μM with 100% methanol as a working solution. These NIC7 and NIC7w solutions were diluted to a concentration of 1 μM with potassium phosphate buffer (pH 7.4), and then each solution was incubated with 0.5 mg/mL liver microsomes (human) at 37° C. for 5 minutes. The reaction was initiated by adding a NADPH-generating system (3.3 mM glucose-6-phosphate (G6P), 1.3 mM β-NADP^+, 3.3 mM MgCl2, and 0.4 U/mL glucose-6-phosphate dehydrogenase (G6PD)) at 37° C. The reaction was stopped at 0 and 30 minutes using cold acetonitrile containing carbamazepine as an internal standard at 20 ng/mL. After vortexing and centrifugation, the supernatant was analyzed with liquid chromatography with tandem mass spectrometry (LC-MS/MS). All microsomal assays were performed in duplicate.
After sample preparation, 0.1 mL acetonitrile containing 20 ng/mL internal standard was added to a 50 μL aliquot of each biological sample. After vortexing and centrifugation at 12,000 rpm for 10 minutes, 10 μL of the supernatant was analyzed with LC-MS/MS.
In the LC system, a reversed-phase C18 column (BEH C18, 2.1 mm×100 mm i.d., 1.7 μm; Waters, Ireland) was maintained at 4° C. The composition of the mobile phase was changed from 80% of 0.1% formic acid in water to 80% of 0.1% formic acid in acetonitrile for 3 minutes, and then switched to 80% of 0.1% formic acid in water for 3.1 minutes, and maintained at 0.5 at mL/min for 5 minutes. The analytes were monitored on an API5500 triple quadrupole mass spectrometer MS (AB Sciex, Foster City, CA) equipped with a turbo ion spray interface for electrospray ionization and operated in positive ion mode at 5.5 kV and 500° C. at 50 L/min of atomizing gas flow, 50 L/min of turbo ion-spray gas flow, 20 L/min of curtain gas flow, 5.5 kV of ring voltage and 5 Torr of collision gas (nitrogen) pressure. The mass transitions for NIC7, NIC7w and the internal standard were m/z 481.1→165.0 (collision energy, 45 eV), 453.1→165.0 (41.0 eV) and 236.9→194.0 (29 eV), respectively, in the multiple reaction monitoring mode.

Body weight in AD model = format: in vivo, C57BL/6 mice; details: NIC7 100 nmol/g intraperitoneally; compared to the untreated mice
Method: as §1

NLRP3 = biological target: T1, NLRP3 (Homo sapiens, UniProt Q96P20); test: Inhibition of NLRP3 by IL-1β secretion level (ELISA); format: cell-based; details: PMA-differentiated THP-1, LPS (10 ng/mL) 4 hours, compound 1 hour, nigericin (10 μM) 1 hour
T1 construct: THP-1 cells (10^5/well) were differentiated with PMA (80 nM, 48 hours) in a 96-well plate; endogenous in cells; host or cells: PMA-differentiated, LPS-primed THP-1 cells
Method: THP-1 cells (10^5/well) were differentiated with PMA (80 nM, 48 hours) in a 96-well plate (BD Biosciences). The differentiated macrophages were primed with LPS (10 ng/mL) for 4 hours. Thereafter, the cells were treated with each compound for 1 hour in a serum-free medium, followed by activation of NLRP3 by nigericin for an additional 1 hour. The supernatant was collected and the inhibition of human IL-1β secretion was analyzed using the Human IL-1β Uncoated ELISA Kit (Thermo Fisher Scientific, Inc.). A microplate spectrophotometer system (Molecular Devices) was employed to read absorbance in the plate.

T1 sequence (Q96P20 whole entry): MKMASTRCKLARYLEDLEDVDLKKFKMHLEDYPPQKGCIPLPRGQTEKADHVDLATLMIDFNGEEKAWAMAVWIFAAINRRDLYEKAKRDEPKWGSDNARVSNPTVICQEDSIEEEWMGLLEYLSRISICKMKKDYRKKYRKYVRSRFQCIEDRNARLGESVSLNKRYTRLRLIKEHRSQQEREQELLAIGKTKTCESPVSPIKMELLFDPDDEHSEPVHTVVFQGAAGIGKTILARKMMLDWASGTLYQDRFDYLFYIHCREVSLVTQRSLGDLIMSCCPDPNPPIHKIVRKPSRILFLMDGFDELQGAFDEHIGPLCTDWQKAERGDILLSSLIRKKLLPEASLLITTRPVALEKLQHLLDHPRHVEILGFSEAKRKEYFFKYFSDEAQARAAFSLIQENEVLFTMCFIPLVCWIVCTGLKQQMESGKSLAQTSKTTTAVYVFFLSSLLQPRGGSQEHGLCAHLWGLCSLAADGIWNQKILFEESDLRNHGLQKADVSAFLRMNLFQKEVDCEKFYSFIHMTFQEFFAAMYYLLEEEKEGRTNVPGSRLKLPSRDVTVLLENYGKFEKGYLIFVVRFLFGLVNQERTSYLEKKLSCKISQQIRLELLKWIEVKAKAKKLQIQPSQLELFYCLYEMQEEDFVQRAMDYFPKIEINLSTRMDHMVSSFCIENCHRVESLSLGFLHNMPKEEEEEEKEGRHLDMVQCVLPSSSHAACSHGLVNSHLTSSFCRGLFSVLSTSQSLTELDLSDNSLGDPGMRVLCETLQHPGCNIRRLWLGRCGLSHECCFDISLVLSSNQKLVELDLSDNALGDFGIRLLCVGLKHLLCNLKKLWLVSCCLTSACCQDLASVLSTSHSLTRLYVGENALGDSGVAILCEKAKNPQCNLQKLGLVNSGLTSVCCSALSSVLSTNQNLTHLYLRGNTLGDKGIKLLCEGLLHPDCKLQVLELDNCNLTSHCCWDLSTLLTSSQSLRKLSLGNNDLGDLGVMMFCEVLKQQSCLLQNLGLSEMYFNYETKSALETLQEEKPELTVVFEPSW

## CC(=O)c1cccc(NC(=O)Nc2ccc3sc(NS(=O)(=O)c4ccc(C)cc4)nc3c2)c1 [NIC7, N-(5-(3-(3-acetylphenyl)ureido)benzo[d]thiazol-2-yl)-4-methylbenzenesulfonamide]
[1]
  inhibition of IL-1β and caspase 1 (Western blot): inhibition
[2]
  Y-maze test, spatial working memory: spent more time in the novel arm
[3]
  recognition index rate (novel object recognition test): better
Microsomal stability
  metabolic stability versus positive control compound: better half-life and stability than a positive control compound
Microsomal stability; Human liver microsomes 0.5 mg/mL, 1 μM compound, 37° C.
  Microsomal stability (% at 30 min): Human: 19.7%
Body weight in AD model
  body weight: significantly increased
NLRP3
  inhibition of IL-1β secretion caused by NLRP3: highest potency; also recorded: significant inhibition
